Data from patent publication US7297704B2, “Cycloalkyfused indole, benzothiophene, benzofuran and idene derivatives” (Wyeth, priority 2005, dated 2007).
Counter-ions that a name gives are not always drawn.

Row | Structure (SMILES) | melting point
1 | Cc1ccc2c3c(ccc2n1)OC[C@H](CN(CC1CC1)CC1CCc2[nH]c4ccc(F)cc4c2C1)O3.Cl.Cl.O.O (stereo partly drawn) (hydrate or solvate) [Example 52, (Cyclopropylmethyl)[(6-fluoro-2,3,4,9-tetrahydro-1H-carbazol-3-yl)methyl]{[(2S)-8-methyl-2,3-dihydro[1,4]dioxino[2,3-f]quinolin-2-yl]methyl}amine dihydrochloride dihydrate] | 215 to 230 °C
2 | Cc1ccc2c3c(ccc2n1)OC[C@H](CN(CC1CCc2[nH]c4ccc(F)cc4c2C1)C1CCC1)O3.Cl.Cl.O.O (stereo partly drawn) (hydrate or solvate) [Example 53, N-[(6-Fluoro-2,3,4,9-tetrahydro-1H-carbazol-3-yl)methyl]-N-{[(2S)-8-methyl-2,3-dihydro[1,4]dioxino[2,3-f]quinolin-2-yl]methyl}cyclobutanamine dihydrochloride dihydrate] | 220 to 235 °C
3 | CCCN(C[C@@H]1CCc2[nH]c3ccc(F)cc3c2C1)C[C@H]1COc2ccc3nc(C)ccc3c2O1.Cl.Cl.O.O (hydrate or solvate) [Example 54, N-{[(3R)-6-Fluoro-2,3,4,9-tetrahydro-1H-carbazol-3-yl]methyl}-N-{[(2S)-8-methyl-2,3-dihydro[1,4]dioxino[2,3-f]quinolin-2-yl]methyl}propan-1-amine dihydrochloride dihydrate] | 225 to 240 °C
4 | Cc1ccc2c3c(ccc2n1)OC[C@H](CN(CC1CC1)C[C@@H]1CCc2[nH]c4ccc(F)cc4c2C1)O3.Cl.Cl.O.O (hydrate or solvate) [Example 55, (Cyclopropylmethyl){[(3R)-6-fluoro-2,3,4,9-tetrahydro-1H-carbazol-3-yl]methyl}{[(2S)-8-methyl-2,3-dihydro[1,4]dioxino[2,3-f]quinolin-2-yl]methyl}amine dihydrochloride dihydrate] | 210 to 225 °C
5 | Cc1ccc2c3c(ccc2n1)OC[C@H](CN(C[C@@H]1CCc2[nH]c4ccc(F)cc4c2C1)C1CCC1)O3.Cl.Cl.O.O (hydrate or solvate) [Example 56, N-{[(3R)-6-Fluoro-2,3,4,9-tetrahydro-1H-carbazol-3-yl]methyl}-N-{[(2S)-8-methyl-2,3-dihydro[1,4]dioxino[2,3-f]quinolin-2-yl]methyl}cyclobutanamine dihydrochloride dihydrate] | 215 to 230 °C
6 | Cc1ccc2c3c(ccc2n1)OC[C@H](CN(C[C@@H]1CCc2[nH]c4ccc(F)cc4c2C1)C(C)C)O3.Cl.O (hydrate or solvate) [Example 57, N-{[(3R)-6-Fluoro-2,3,4,9-tetrahydro-1H-carbazol-3-yl]methyl}-N-{[(2S)-8-methyl-2,3-dihydro[1,4]dioxino[2,3-f]quinolin-2-yl]methyl}propan-2-amine monohydrochloride monohydrate] | 230 to 243 °C
7 | CCC(C)N(C[C@@H]1CCc2[nH]c3ccc(F)cc3c2C1)C[C@H]1COc2ccc3nc(C)ccc3c2O1.Cl.O (stereo partly drawn) (hydrate or solvate) [Example 58, N-{[(3R)-6-Fluoro-2,3,4,9-tetrahydro-1H-carbazol-3-yl]methyl}-N-{[(2S)-8-methyl-2,3-dihydro[1,4]dioxino[2,3-f]quinolin-2-yl]methyl}butan-2-amine monohydrochloride monohydrate] | 235 to 256 °C
8 | Cc1ccc2c3c(ccc2n1)OC[C@H](CN(C[C@@H]1CCc2[nH]c4ccc(F)cc4c2C1)C1CCCC1)O3.Cl.O (hydrate or solvate) [Example 59, N-{[(3R)-6-Fluoro-2,3,4,9-tetrahydro-1H-carbazol-3-yl]methyl}-N-{[(2S)-8-methyl-2,3-dihydro[1,4]dioxino[2,3-f]quinolin-2-yl]methyl}cyclopentanamine monohydrochloride monohydrate] | 225 to 243 °C
9 | Cc1ccc2c3c(ccc2n1)OC[C@H](CN(C[C@@H]1CCc2[nH]c4ccc(F)cc4c2C1)C1CCCCC1)O3.Cl.O (hydrate or solvate) [Example 60, N-{[(3R)-6-fluoro-2,3,4,9-tetrahydro-1H-carbazol-3-yl]methyl}-N-{[(2S)-8-methyl-2,3-dihydro[1,4]dioxino[2,3-f]quinolin-2-yl]methyl}cyclohexanamine monohydrochloride monohydrate] | 207 to 218 °C
10 | Cc1ccc2c3c(ccc2n1)OC[C@H](CN(C[C@H]1CCc2[nH]c4ccc(F)cc4c2C1)C(C)C)O3.Cl.O (hydrate or solvate) [Example 61, N-{[(3S)-6-Fluoro-2,3,4,9-tetrahydro-1H-carbazol-3-yl]methyl}-N-{[(2S)-8-methyl-2,3-dihydro[1,4]dioxino[2,3-f]quinolin-2-yl]methyl}propan-2-amine monohydrochloride monohydrate] | 228 to 240 °C
11 | CCC(C)N(C[C@H]1CCc2[nH]c3ccc(F)cc3c2C1)C[C@H]1COc2ccc3nc(C)ccc3c2O1.Cl.O (stereo partly drawn) (hydrate or solvate) [Example 62, N-{[(3S)-6-Fluoro-2,3,4,9-tetrahydro-1H-carbazol-3-yl]methyl}-N-{[(2S)-8-methyl-2,3-dihydro[1,4]dioxino[2,3-f]quinolin-2-yl]methyl}butan-2-amine monohydrochloride monohydrate] | 246 to 257 °C
12 | Cc1ccc2c3c(ccc2n1)OC[C@H](CN(C[C@H]1CCc2[nH]c4ccc(F)cc4c2C1)C1CCCC1)O3.Cl.O (hydrate or solvate) [Example 63, N-{[(3S)-6-Fluoro-2,3,4,9-tetrahydro-1H-carbazol-3-yl]methyl}-N-{[(2S)-8-methyl-2,3-dihydro[1,4]dioxino[2,3-f]quinolin-2-yl]methyl}cyclopentanamine monohydrochloride monohydrate] | 237 to 254 °C
13 | Cc1ccc2c3c(ccc2n1)OC[C@H](CN(C[C@H]1CCc2[nH]c4ccc(F)cc4c2C1)C1CCCCC1)O3.Cl.O (hydrate or solvate) [Example 64, N-{[(3S)-6-Fluoro-2,3,4,9-tetrahydro-1H-carbazol-3-yl]methyl}-N-{[(2S)-8-methyl-2,3-dihydro[1,4]dioxino[2,3-f]quinolin-2-yl]methyl}cyclohexanamine monohydrochloride monohydrate] | 202 to 208 °C
14 | Cc1ccc2c3c(ccc2n1)OC[C@H](CN(CC1CCc2c(c4cc(F)ccc4n2C)C1)C1CCCC1)O3.Cl.O (stereo partly drawn) (hydrate or solvate) [Example 66, N-[(6-Fluoro-9-methyl-2,3,4,9-tetrahydro-1H-carbazol-3-yl)methyl]-N-{[(2S)-8-methyl-2,3-dihydro[1,4]dioxino[2,3-f]quinolin-2-yl]methyl}cyclopentanamine monohydrochloride monohydrate] | 206 to 222 °C
15 | Cc1ccc2c3c(ccc2n1)OC[C@H](CN(CC1CCc2c(c4cc(F)ccc4n2C)C1)C1CCCCC1)O3.Cl.O (stereo partly drawn) (hydrate or solvate) [Example 67, N-[(6-Fluoro-9-methyl-2,3,4,9-tetrahydro-1H-carbazol-3-yl)methyl]-N-{[(2S)-8-methyl-2,3-dihydro[1,4]dioxino[2,3-f]quinolin-2-yl]methyl}cyclohexanamine monohydrochloride monohydrate] | 204 to 225 °C
16 | Cc1ccc2c3c(ccc2n1)OC[C@H](CN(C)C[C@H]1CCc2c(c4cc(F)ccc4n2C)C1)O3.Cl.O (hydrate or solvate) [Example 68, {[(3S)-6-Fluoro-9-methyl-2,3,4,9-tetrahydro-1H-carbazol-3-yl]methyl}methyl{[(2S)-8-methyl-2,3-dihydro[1,4]dioxino[2,3-f]quinolin-2-yl]methyl}amine monohydrochloride monohydrate] | 248 to 258 °C
17 | Cc1ccc2c3c(ccc2n1)OC[C@H](CN(C)C[C@@H]1CCc2c(c4cc(F)ccc4n2C)C1)O3.Cl.O (hydrate or solvate) [Example 69, {[(3R)-6-Fluoro-9-methyl-2,3,4,9-tetrahydro-1H-carbazol-3-yl]methyl}methyl{[(2S)-8-methyl-2,3-dihydro[1,4]dioxino[2,3-f]quinolin-2-yl]methyl}amine monohydrochloride monohydrate] | 244 to 256 °C
18 | Cc1ccc2c3c(ccc2n1)OC[C@H](CNC1CCc2c([nH]c4ccc(F)cc24)C1)O3 (mixture of isomers) (as salt: hydrochloride) [Example 46, 6-Fluoro-N-{[(2S)-8-methyl-2,3-dihydro[1,4]dioxino[2,3-f]quinolin-2-yl]methyl}-2,3,4,9-tetrahydro-1H-carbazol-2-amine] | 226 to 228 °C (dec.)
19 | Cc1ccc2c3c(ccc2n1)OC[C@H](CNC[C@H]1CCc2[nH]c4ccccc4c2C1)O3 (single isomer, unassigned) (as salt: hydrochloride) [Example 100a] | 202 to 205 °C (dec.)
20 | Cc1ccc2c3c(ccc2n1)OC[C@H](CNC[C@@H]1CCc2[nH]c4ccccc4c2C1)O3 (single isomer, unassigned) (as salt: hydrochloride) [Example 100b] | 218 to 221 °C (dec.)
21 | Cc1ccc2c3c(ccc2n1)OCC(CNCC1CCc2[nH]c4ccc(Cl)cc4c2C1)O3 (stereo not drawn) [Example 85, (6-Chloro-2,3,4,9-tetrahydro-1H-carbazol-3-ylmethyl)-(8-methyl-2,3-dihydro-[1,4]dioxino[2,3-f]quinolin-2-ylmethyl)-amine] | 235 to 237 °C
